Laboratory results published in patent US8785481B2, “Ether benzotriazole derivatives” (Merck Sharp & Dohme Corp., priority 2010, dated 2014).

Target: T1, recombinant human mGluR2 (Homo sapiens, UniProt Q14416)
T1 construct: expressed in transfected cells
Test: FLIPR Ca2+ mobilization assay, potentiation of glutamate (EC20) response
Type: cell-based
Details: CHO dhfr- cells expressing human mGluR2 and Gα16, EC20 glutamate (900 nM)
Method: Potencies are determined as follows. The compounds of the present invention may be tested in a fluorescence laser imaging plate reader (FLIPR) based assay. This assay is a common functional assay to monitor Ca^2+ mobilization in whole cells expressing recombinant receptor coupled with a promiscuous G-protein. CHO dhfr- cells stably expressing recombinant human mGluR2 and Gα16 loaded with Fluo-4 AM (Invitrogen, Carlsbad Calif.) are treated with varying concentrations of compounds and the Ca^2+ response is monitored on a FLIPR384 (Molecular Devices, Sunnydale Calif.) for agonist activity. The potentiation response is monitored after a subsequent addition of an EC20 concentration of glutamate (900 nM). The maximum calcium response at each concentration of compound for agonism or potentiation are plotted as dose responses curves fitted with a four parameters logistic equation giving EC50 and Hill coefficient using the iterative non linear curve fitting software program.

T1 sequence (Q14416 19-872): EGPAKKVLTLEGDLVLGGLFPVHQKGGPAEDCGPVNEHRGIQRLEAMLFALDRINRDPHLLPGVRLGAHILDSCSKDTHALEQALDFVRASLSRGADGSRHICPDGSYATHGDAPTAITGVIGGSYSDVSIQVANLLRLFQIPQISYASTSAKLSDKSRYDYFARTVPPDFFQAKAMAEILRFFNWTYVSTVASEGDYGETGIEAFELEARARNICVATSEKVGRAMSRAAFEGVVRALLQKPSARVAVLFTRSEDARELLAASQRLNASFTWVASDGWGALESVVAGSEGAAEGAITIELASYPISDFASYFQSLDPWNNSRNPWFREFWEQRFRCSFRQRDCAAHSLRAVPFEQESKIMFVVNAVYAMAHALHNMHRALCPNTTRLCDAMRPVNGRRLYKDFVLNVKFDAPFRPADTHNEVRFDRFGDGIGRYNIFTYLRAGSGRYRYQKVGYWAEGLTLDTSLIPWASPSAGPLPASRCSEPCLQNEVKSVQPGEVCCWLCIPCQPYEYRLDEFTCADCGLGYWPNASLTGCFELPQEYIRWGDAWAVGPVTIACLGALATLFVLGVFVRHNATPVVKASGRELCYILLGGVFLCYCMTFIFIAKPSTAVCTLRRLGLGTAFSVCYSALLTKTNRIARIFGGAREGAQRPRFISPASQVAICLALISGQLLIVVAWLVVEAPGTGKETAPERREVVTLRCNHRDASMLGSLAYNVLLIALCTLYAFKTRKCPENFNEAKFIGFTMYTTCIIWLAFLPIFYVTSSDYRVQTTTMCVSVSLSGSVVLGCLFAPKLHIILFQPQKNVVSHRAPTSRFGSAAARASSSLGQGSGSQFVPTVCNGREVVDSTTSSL

SMILES | EC50 [nM]
CC(C)(C)C(O)COc1ccc2c(nnn2CC2CC2)c1Br (racemic) [Example 8-1, (±)-1-{[4-Bromo-1-(cyclopropylmethyl)-1H-benzotriazol-5-yl]oxy}-3,3-dimethylbutan-2-ol] | 72
COc1ccc2c(nnn2CC2CCCC2)c1Br [Example 1-3, 4-bromo-1-(cyclopentylmethyl)-5-methoxy-1H-benzotriazole] | 93
CCOc1ccc2c(nnn2CC(C)(C)C)c1Br [Example 1-4, 4-bromo-1-(2,2-dimethylpropyl)-5-ethoxy-1H-benzotriazole] | 32
COc1ccc2c(nnn2CCCC(F)(F)F)c1Br [Example 1-11, 4-bromo-5-methoxy-1-(4,4,4-trifluorobutyl)-1H-benzotriazole] | 51
CC(C)[C@@H](C)n1nnc2c(Br)c(O)c(Br)cc21 [Example 2-4, 4,6-dibromo-1-[(1R)-1,2-dimethylpropyl]-1H-benzotriazol-5-ol] | 373
CC(C)(C)Cn1nnc2c(Br)c(OCc3cccc(-c4ccc(O)c(C(=O)O)c4)c3)ccc21 [Example 3-3, 3′-({[4-bromo-1-(2,2-dimethylpropyl)-1H-benzotriazol-5-yl]oxy}methyl)-4-hydroxy-biphenyl-3-carboxylic acid] | 3.5
CC(Oc1ccc2c(nnn2CC(C)(C)C)c1Br)c1ccccc1 (centres unmarked) [Example 3-15, 4-bromo-1-(2,2-dimethylpropyl)-5-(1-phenylethoxy)-1H-benzotriazole] | 91
Cc1cnc(C#N)c(-c2cccc(COc3ccc4c(nnn4CC(C)(C)C)c3Br)c2)c1 [Example 3-26, 3-[3-({[4-bromo-1-(2,2-dimethylpropyl)-1H-benzotriazol-5-yl]oxy}methyl)phenyl]-5-methylpyridine-2-carbonitrile] | 16
CC(C)(C)Cn1nnc2c(Br)c(OCc3cccc(-c4c[nH]nc4C#N)c3)ccc21 [Example 3-34, 4-[3-({[4-bromo-1-(2,2-dimethylpropyl)-1H-benzotriazol-5-yl]oxy}methyl)phenyl]-1H-pyrazole-3-carbonitrile] | 49
CC(C)(C)Cn1nnc2c(Br)c(OCc3cccc4ccnn34)ccc21 [Example 4-5, 4-bromo-1-(2,2-dimethylpropyl)-5-(pyrazolo[1,5-a]pyridin-7-ylmethoxy)-1H-benzotriazole] | 42
CC(C)(C)Cn1nnc2c(Br)c(OCc3ncccn3)ccc21 [Example 4-7, 4-bromo-1-(2,2-dimethyl-propyl)-5-(pyrimidin-2-ylmethoxy)-1H-benzotriazole] | 521
CC(C)(C)Cn1nnc2c(Br)c(OCc3cccc(N4CCCCC4)n3)ccc21 [Example 4-27, 4-bromo-1-(2,2-dimethylpropyl)-5-[(6-piperidin-1-ylpyridin-2-yl)methoxy]-1H-benzotriazole] | 288
CC(C)(C)Cn1nnc2c(Br)c(OCc3ncccc3F)ccc21 [Example 4-42, 4-bromo-1-(2,2-dimethyl-propyl)-5-[(3-fluoropyridin-2-yl)methoxy]-1H-benzotriazole] | 41
CC(C)(C)Cn1nnc2c(Br)c(OCc3ccccc3Cl)ccc21 [Example 4-45, 4-bromo-5-[(2-chlorobenzyl)oxy]-1-(2,2-dimethylpropyl)-1H-benzotriazole] | 65
CC(C)(C)OC(=O)N1CCC(COc2ccc3c(nnn3CC3CC3)c2Cl)CC1 [Example 4-63, tert-butyl 4-({[4-chloro-1-(cyclopropylmethyl)-1H-benzotriazol-5-yl]oxy}methyl) piperidine-1-carboxylate] | 34
C[C@H](O)C(=O)N1CCC(COc2ccc3c(nnn3CC3CC3)c2Br)CC1 [Example 4-65, (2S)-1-[4-({[4-bromo-1-(cyclopropylmethyl)-1H-benzotriazol-5-yl]oxy}methyl)piperidin-1-yl]-1-oxopropan-2-ol] | 188

SMILES | EC50 [nM]
CC(C)(C)OC(=O)N1CCC(COc2ccc3c(nnn3CC3CC3)c2Br)C1 (centres unmarked) [Example 4-67, tert-butyl 3-({[4-bromo-1-(cyclopropylmethyl)-1H-benzotriazol-5-yl]oxy}methyl) pyrrolidine-1-carboxylate] | 20
CC1(COc2ccc3c(nnn3CC3CC3)c2C(F)(F)F)CCN(C(=O)CO)CC1 [Example 4-79, 2-[4-({[1-(cyclopropylmethyl)-4-(trifluoromethyl)-1H-benzotriazol-5-yl]oxy}methyl)-4-methyl-piperidin-1-yl]-2-oxoethanol] | 7
N#CCOc1ccc2c(nnn2CC2CC2)c1Br [Example 5-1, {[4-Bromo-1-(cyclopropylmethyl)-1H-benzotriazol-5-yl]oxy}acetonitrile] | 281
COc1cccc(COc2ccc3c(nnn3CC3CC3)c2Br)n1 [Example 6-1, 4-Bromo-1-(cyclopropylmethyl)-5-[(6-methoxypyridin-2-yl)methoxy]-1H-benzotriazole] | 10
CC(C)(C)C(=O)COc1ccc2c(nnn2CC2CC2)c1Br [Example 7-1, 1-{[4-Bromo-1-(cyclopropylmethyl)-1H-benzotriazol-5-yl]oxy}-3,3-dimethylbutan-2-one] | 34
CC(C)(C)/C(COc1ccc2c(nnn2CC2CC2)c1Br)=N/O [Example 9-1, 1-{[4-Bromo-1-(cyclopropylmethyl)-1H-benzotriazol-5-yl]oxy}-N-hydroxy-3,3-dimethylbutan-2-imine] | 84
FC(F)CN1CCC(Oc2ccc3c(nnn3CC3CC3)c2Br)CC1 [Example 10-47, 4-bromo-1-(cyclopropylmethyl)-5-{[1-(2,2-difluoroethyl)piperidin-4-yl]oxy}-1H-benzotriazole] | 424
Brc1c(OCc2cscn2)ccc2c1nnn2CC1CC1 [Example 10-56, 4-bromo-1-(cyclopropylmethyl)-5-(1,3-thiazol-4-ylmethoxy)-1H-benzotriazole] | 150
Brc1c(OCC2COCCO2)ccc2c1nnn2CC1CC1 (centres unmarked) [Example 10-73, 4-bromo-1-(cyclopropylmethyl)-5-(1,4-dioxan-2-ylmethoxy)-1H-benzotriazole] | 415
C=CCOc1ccc2c(nnn2CC2CC2)c1Br [Example 10-120, 4-bromo-1-(cyclopropylmethyl)-5-(prop-2-en-1-yloxy)-1H-benzotriazole] | 60
Brc1c(OCC2CCC2)ccc2c1nnn2CC1CC1 [Example 10-140, 4-bromo-5-(cyclobutylmethoxy)-1-(cyclopropylmethyl)-1H-benzotriazole] | 39
O=C1CCC(Oc2ccc3c(nnn3CC3CC3)c2Br)CC12CC2 (centres unmarked) [Example 10-171, 7-{[4-bromo-1-(cyclopropyl-methyl)-1H-benzotriazol-5-yl]oxy}spiro[2.5]octan-4-one] | 87
FC(F)(F)CN1CCN(CCOc2ccc3c(nnn3CC3CC3)c2Br)CC1 [Example 10-220, 4-bromo-1-(cyclopropylmethyl)-5-{2-[4-(2,2,2-trifluoroethyl)piperazin-1-yl]ethoxy}-1H-benzotriazole] | 222
CCOc1ccc2c(nnn2CC2CC2)c1Br [Example 10-253, 4-bromo-1-(cyclopropylmethyl)-5-ethoxy-1H-benzotriazole] | 530
Brc1c(OCCn2cccn2)ccc2c1nnn2CC1CC1 [Example 10-275, 4-bromo-1-(cyclopropylmethyl)-5-[2-(1H-pyrazol-1-yl)ethoxy]-1H-benzotriazole] | 214
FC(F)(F)c1c(OCc2ccccc2)ccc2c1nnn2CC1CC1 [Example 11-1, 5-(Benzyloxy)-1-(cyclopropylmethyl)-4-(trifluoromethyl)-1H-benzotriazole] | 9
